Experimental data reported in US9888679B2, “Protection of progenitor cells and regulation of their differentiation” (Proteobioactives Pty Ltd, priority 2007, dated 2018).

Tests used:
[1] = system: human progenitor cell; assay: Viability after cryopreservation and thawing, MTT assay; format: cell-based; conditions: FIG. 3
Description: FIG. 3. Effects of different concentrations of Pentosan Polysulfate (PPS) on progenitor cell viability following cryopreservation in liquid nitrogen and rapidly thawing as described in FIG. 1. Cell viability was determined using the mitochondrial dehydrogenase MTT assay. Data shown=Means±SD *=p<0.05 relative to control values
Murine Progenitor cells (cell lines C3H10T1/2 or ATDC5) purchased from RIKEN Cell Bank (Tsukuba, Japan) or human immunoselected Stro-1+ progenitor cells (Mesoblast Ltd, Melbourne, Australia) were seeded at a various cell densities over the range of 1.68×10^5-1.0×10^6 cells into 2 mL screw-capped centrifuge tubes containing in DMEM+10% FBS. In separate tubes a stock solution containing 2× the required concentrations of PPS dissolved in DMEM+20% FBS and 15% DMSO were prepared. These stock solutions were added to the cell cultures such that the final concentration of PPS was half that of the stock concentration and of FBS was 10% and DMSO was […]. Over several independent experiments the final concentrations of PPS in the final solutions ranged from 0.0-100 ug/ml (see figures for details). All concentrations of PPS used were examined in triplicated. Cells and the cryopreservation solutions containing the PPS were mixed gently for 5 mins and stored in liquid nitrogen. […] 90 ul×3 from each tube were transferred to a 96-well plate and the absorbance at 540 nm determined. […]

[2] = system: human progenitor cells; assay: Proteoglycan synthesis in micromass cultures, 5 days; format: cell-based; conditions: FIG. 17
From the text: FIG. 17. Bar graphs showing the concentration dependent effects of PPS on proteoglycan synthesis by human progenitor cells in micromass cultures for 5 days. Data is presented as 35S-GAG radioactivity and as a percentage of control taken as 100%. * P<0.05 relative to control.
FIG. 19. Bar graphs showing the concentration dependent effects of (A) Hyaluronan (Supartz™) and (B) Dextran Polysulfate on proteoglycan synthesis by human progenitor cells in micromass cultures for 5 days. Data is presented as ^35S-GAG radioactivity and as a percentage of control, taken as 100% or as DPM/ug DNA. * P<0.05 relative to control.
The technique used was based on that described by (Denker A E, Haas A R, Nicoll S B and Tuan R S. Chondrogenic differentiation of murine C3H10T1/2 multipotential progenitor cells: I. Stimulation by bone morphogenetic protein-2 in high density micromass cultures. Differentiation (1999); 64: 67-76). Briefly murine Progenitor cells (cell lines C3H10T1/2 or ATDC5) purchased from RIKEN Cell Bank (Tsukuba, Japan) or human immunoselected Stro-1+ Progenitor cells (Mesoblast Ltd, Melbourne, Australia) Ten microlitres (10 μl) of a suspension of the progenitor cells (1×10^7 cells/ml in Ham's F12 medium+10% FBS) were applied to individual wells of a 24-well plates. After incubatation at 37° C. in a humidified atmosphere of 5% CO2/95% air for 2-3 hours, 900 μl of Ham's F12 medium (10% FBS) and 100 μl of PPS solution in the same medium were added slowly into the wells to afford final concentrations of PPS in each of 0, 0.1, 0.5, 1.0, 2.5, 5.0, 10.0, 20.0 μg/ml alone or in combination with rhNC4 (0, 0.1, 0.5, 1.0, 2.5, 5.0, 10.0, 25.0 μg/ml). Each drug concentration was repeated in triplicate. The cells were maintained in culture for up to 10 days. The medium with/without drugs was changed every 3 days but 24 hours before termination of the experiment 80 μl of 50 μCi/ml ^35S-H2SO4 was added to achieve a final ^35SO4 concentration of 5 μCi/ml. The following day, the cells in one of the plates were trypsinized with 150 μl/well of 2.5% trypsin and separated from the medium by centrifugation at 800 g for 10 minutes, washed with 500 μl of 1×PBS and stored in liquid nitrogen for RNA and/or DNA extraction and analysis. Media and supernatants were combined in one tube for each concentration of PPS used. To the tubes was added, 200 μl of 5× Papain solution [2.5 mg/ml Papain, 7.9 mg/ml L-Cysteine in Papain buffer (0.1 M NaAC, 5 mM EDTA, pH6.0)] and the solution incubated at 65° C. for 2 hours. After papain digestion, Four aliquots of 200 μl of digested solution were transferred to a 96-well plate (200 μl/well). The ^35S-GAG released by the digestion step were separated from the free ^35SO4 by adding 20 μl 5% CPC and 10 μl 1 mg/ml CSA with gentle shaking at 300 rpm RT for 20-30 min to precipitate the ^35S-GAG-CPC complexes. The precipitates were collected by filtered through glass fibre filters using a cell harvester. The filters were then air-dried and discs punched to scintillation vials. 3 ml/vial scintillation cocktail liquid was added and vortexed for 30-45 sec. The radioactivity of ^35S—SO4 incorporated the ^35S-GAG-CPC complexes was measured by scintillation counting.
Data is presented as 35S-GAG radioactivity and as a percentage of control taken as 100%. * P<0.05 relative to control.
Similar experiments were undertaken using Hyaluronic acid (SuperArtz (SKK, Tokyo, Japan)) and Dextran polysulfate (MW=5000) (Sigma, Sydney, Australia) in place of PPS. […] Data is presented as 35S-GAG radioactivity and as a percentage of control taken as 100% or as DPM/ug DNA. * P<0.05 relative to control.

Substance: pentosan polysulfate [PPS]
- cell viability after cryopreservation and thawing (MTT) ([1]; 168,000 cells, particularly at 1 and 2.5 μg/ml PPS): improved the viability of the cells
- cell viability after cryopreservation and thawing (MTT) ([1]; 350,000 cells): not adversely affected
- maximum stimulation of PG synthesis ([2]; 2.5 micrograms/mL, 5 day micromass cultures): 30%
- proteoglycan synthesis ([2]; PPS 0.5-10 μg/ml, 5 day micromass): Increased proteoglycan synthesis
